From article PMC2532997, “Methoxylation enhances stilbene bioactivity in Caenorhabditis elegans” (BMC Pharmacology, 2008)

Columns and labels:
[1] = test system: C. elegans fem-1(hc17) sterile adults; test: Adult survival assay of sterile fem-1(hc17) adults on compound-supplemented medium; assay type: in vivo, Caenorhabditis elegans
Description: For survival assays, young adult (day 0) animals were transferred onto fresh medium supplemented with the test compound at a range of concentrations. The compounds were tested at indicated concentrations in the growth medium (below). C. elegans nematodes are surrounded by a thick collagenous cuticle and are therefore relatively impermeable to environmental compounds. […] Survival was scored every 2–3 days as the ability to move in response to a gentle mechanical stimulus. During the first week of adulthood, C. elegans hermaphrodites are reproductively competent and normally produce 200–300 progeny. Since progeny production would complicate survival analysis, these experiments were performed using fem-1(hc17) animals that are sterile due to a spermatogenesis defect.
Resveratrol and picetannol were obtained from commercial sources (Sigma-Aldrich, Inc. and Calbiochem-Novobiochem Corp., respectively). The methoxylated stilbenes pinostilbene, desoxyrhapontigenin, 3-hydroxy-5,4'-dimethoxystilbene and pterostilbene (Figure 1) were synthesized by partial methylation of trans-resveratrol as previously reported. The methoxylated stilbenes were purified by preparative layer chromatography (Merck Silica gel 60 F254; EMD Chemicals Inc., Gibbstown, NJ) using the developing solvent chloroform:methanol (96:4) with 1% formic acid. […] These stilbenes were identified from their ^1H-NMR spectra (Bruker 400 MHz; Bruker, Billerica, MA). All stilbenes were dissolved in ethanol to 25 mg/mL before use. 5-Fluoro-deoxyuracil (Sigma Chemical Co.) was dissolved to 1 mg/mL in sterile water and stored frozen at -20°C until use. For treating C. elegans adults, each compound was added in a 200 μL volume to the top of a 1-day old bacterial lawn grown on NGM medium to final concentrations as indicated. Compounds were allowed 2 hours to diffuse through the agar medium before animals were added.
For survival analyses, synchronized populations of sterile fem-1(hc17) hermaphrodites were obtained by first transferring several fertile hermaphrodites to a fresh plate at 25°C and allowing them to lay eggs for several hours. The parent hermaphrodites were removed and embryos were allowed to develop into sterile adults at 25°C, which takes approximately 48 hours. On the first day of adulthood, referred to as day 0, sterile adults were transferred onto fresh media supplemented with stilbenes at indicated concentrations, and maintained at 25°C. Adult survival was scored every 2–3 days by the animal's ability to move in response to a gentle mechanical stimulus. Statistical analysis of survival was performed using the JMP software package.

cytochrome P450 2E1 = test system: cytochrome P450 2E1; parameters: method as in PMID 16684708; details: cited from earlier work
[2] = test system: gld-1(q485) germline tumors; test: Germline tumor growth assay (DAPI-stained tumor area); assay type: in vivo, Caenorhabditis elegans; details: for effect on tumor size (in words): 100 μM dose
Description: To assess the effects of methoxylation on antitumor activity in vivo, tumor area was measured in gld-1(q485) adults treated for four days with either resveratrol trimethylether, desoxyrhapontigenin or pterostilbene, which are methoxylated and toxic to adults, or resveratrol, which is hydroxylated and nontoxic. As controls, germline tumor area was also measured in animals treated with carrier only (ethanol) or with 5-fluoro-2'-deoxyuradine (FUDR), a thymidylate synthetase inhibitor that blocks cell proliferation. […] After four days of treatment, animals were collected and germline tumors were visualized by DAPI staining to visualize germcell nuclei. Because the level of DAPI staining was not quantitative between animals, we DAPI signal intensity was not used as a measure of tumor size. Rather, tumor size was directly measured as the area of the DAPI-stained gonad.
Resveratrol and picetannol were obtained from commercial sources (Sigma-Aldrich, Inc. and Calbiochem-Novobiochem Corp., respectively). The methoxylated stilbenes pinostilbene, desoxyrhapontigenin, 3-hydroxy-5,4'-dimethoxystilbene and pterostilbene (Figure 1) were synthesized by partial methylation of trans-resveratrol as previously reported. The methoxylated stilbenes were purified by preparative layer chromatography (Merck Silica gel 60 F254; EMD Chemicals Inc., Gibbstown, NJ) using the developing solvent chloroform:methanol (96:4) with 1% formic acid. The Rf values for pterostilbene, 3-hydroxy-5,4'-dimethoxystilbene, pinostilbene and desoxyrhapontigenin are 0.61, 0.57, 0.28, and 0.20, respectively. These stilbenes were identified from their ^1H-NMR spectra (Bruker 400 MHz; Bruker, Billerica, MA). All stilbenes were dissolved in ethanol to 25 mg/mL before use. 5-Fluoro-deoxyuracil (Sigma Chemical Co.) was dissolved to 1 mg/mL in sterile water and stored frozen at -20°C until use. For treating C. elegans adults, each compound was added in a 200 μL volume to the top of a 1-day old bacterial lawn grown on NGM medium to final concentrations as indicated. Compounds were allowed 2 hours to diffuse through the agar medium before animals were added.
The gld-1(q485) mutation causes a defect in oocyte development that results in growth of germline tumors that fill the somatic gonad, eventually leading to the animal's death. To examine the effects of the stilbenes on gld-1(q485) germline tumors, day 0 adults were placed on stilbene-containing medium in the presence of OP50 bacteria as food source. After 4 days at 20°C, animals were fixed in methanol and germcell nuclei were visualized by staining with DAPI. Images were collected with the entire animal in view using the 4× objective on a Nikon E800 microscope equipped with a Hamamatsu Orca ER CCD camera using OpenLab imaging software. NIH Image J software was used to measure germline tumor growth in treated and untreated animals. Tumor area was measured by outlining the entire DAPI-stained tumor.

[3] = Trial 2, 20 μM, control 11.05 days
[4] = Trial 2, 40 μM, control 11.05 days
[5] = Trial 3, 100 μM, control 15.37 days
[6] = Trial 3, 200 μM, control 15.37 days
[7] = Trial 6, 20 μM, control 15.32 days
[8] = Trial 6, 40 μM, control 15.32 days
[9] = Trial 6, 100 μM, control 15.32 days
[10] = Trial 1, 100 μM in medium, from day 0 of adulthood, 25°C, control 12.16 days
[11] = Trial 1, 100 μM, treated vs control mean lifespan
[12] = Trial 4, 20 μM, control 11.26 days
[13] = Trial 4, 40 μM, control 11.26 days
[14] = Trial 4, 100 μM, control 11.26 days

| SMILES | Relative survival ([1]; Trial 2, 20 μM) [%] | Mean lifespan, Treated [1, 3] [days] | Relative survival ([1]; Trial 2, 40 μM) [%] | Mean lifespan, Treated [1, 4] [days] | Relative survival ([1]; Trial 3, 100 μM) [%] | Mean lifespan, Treated [1, 5] [days] | Relative survival ([1]; Trial 3, 200 μM) [%] | Mean lifespan, Treated [1, 6] [days] | Relative survival ([1]; Trial 6, 20 μM) [%] | Mean lifespan, Treated [1, 7] [days] | Relative survival ([1]; Trial 6, 40 μM) [%] | Mean lifespan, Treated [1, 8] [days] | Relative survival ([1]; Trial 6, 100 μM) [%] | Mean lifespan, Treated [1, 9] [days] | inhibition of catalytic activity of cytochrome P450 2E1 (in words) (cytochrome P450 2E1) | Mean lifespan, Treated [1, 10] [days] | Relative survival [1, 11] [%] | effect on tumor size (in words) ([2]; four days treatment) | Relative survival ([1]; Trial 4, 20 μM) [%] | Mean lifespan, Treated [1, 12] [days] | further results |
| --- | --- | --- | --- | --- | --- | --- | --- | --- | --- | --- | --- | --- | --- | --- | --- | --- | --- | --- | --- | --- | --- |
| Oc1cc(O)cc(/C=C/c2ccc(O)c(O)c2)c1 [Piceatannol, piceatannol, reference compound] | 106 | 11.72 | 105 | 11.58 | 116 | 17.78 | 114 | 17.5 | 89 | 13.71 | 102 | 15.63 | 108 | 16.6 | – | – | – | – | – | – | – |
| COc1cc(O)cc(/C=C/c2ccc(O)cc2)c1 [Pinostilbene, pinostilbene] | 91 | 10.04 | 104 | 11.53 | 110 | 16.9 | 99 | 15.23 | 93 | 14.24 | 113 | 17.33 | 106 | 16.24 | moderately inhibited | 13.6 | 112 | – | – | – | – |
| COc1ccc(/C=C/c2cc(O)cc(O)c2)cc1 [Desoxyrhapontigenin, desoxyrhapontigenin] | – | – | – | – | 74 | 11.31 | 76 | 11.61 | 93 | 14.18 | 100 | 15.31 | 89 | 13.63 | not inhibitory | 10.64 | 88 | consistent reductions in tumor size | 91 | 10.2 | Relative survival ([1]; Trial 4, 40 μM): 92%; Mean lifespan, Treated [1, 13]: 10.38 days; Relative survival ([1]; Trial 4, 100 μM): 84%; Mean lifespan, Treated [1, 14]: 9.44 days |
| COc1cc(/C=C/c2ccc(O)cc2)cc(OC)c1 [Pterostilbene, pterostilbene] | – | – | – | – | – | – | – | – | 90 | 13.72 | 94 | 14.41 | 72 | 10.98 | – | 9.55 | 79 | modestly reduced tumor size | 93 | 10.43 | Relative survival ([1]; Trial 4, 40 μM): 89%; Mean lifespan, Treated [1, 13]: 10 days; Relative survival ([1]; Trial 4, 100 μM): 72%; Mean lifespan, Treated [1, 14]: 8.07 days |
| Oc1ccc(/C=C/c2cc(O)cc(O)c2)cc1 [Resveratrol, resveratrol, reference compound] | 107 | 11.85 | 95 | 10.53 | 108 | 16.64 | 111 | 17 | 96 | 14.65 | 106 | 16.17 | 115 | 17.55 | – | 12.18 | 100 | – | – | – | effect on germline tumor size vs untreated ([2]; 100 μM in growth medium, four days treatment, FUDR values are single trials): -4%; effect on tumor area (in words) ([2]; 200 and 400 μM dose, three trials): not associated with statistically significant reductions in tumor area |
| COc1ccc(C=Cc2cc(O)cc(OC)c2)cc1 [3-OH-5,4'-dimethoxystilbene, 3-hydroxy-5,4'-dimethoxystilbene] | 100 | 11.05 | 95 | 10.52 | – | – | – | – | 68 | 10.38 | 50 | 7.68 | 43 | 6.56 | – | 6.34 | 52 | – | – | – | – |
